Assay results as given in PubChem BioAssay AID228 (DTP/NCI, 2004).
Several values for one entry are separate records, joined by “and”; a condition that tells them apart may be missing. Identical values can stand only once. Records with an inconclusive call do not appear.

Tested on: BDF1 mice, Friend leukemia sc, tumor weight T/C
Assay: NCI In Vivo Anticancer Drug Screen. Data for tumor model Friend Virus Leukemia (Solid) (subcutaneous) in B6D2F1 (BDF1) mice
Conditions: endpoint: mean tumor weight, higher = larger tumour
Protocol: The antitumor activity of compounds was measured in mice bearing transplantable tumors. Survival or tumor size were measured and the results are expressed as the measurement made in the treated group (T) divided by the measurement made in the vehicle treated control group (C). The tumor model used in this assay is Friend Virus Leukemia (Solid) (subcutaneous) in B6D2F1 (BDF1) mice

[1] = dose: 5.0 mg/kg/injection, schedule: Q01DX011 (ip), vehicle: carboxymethylcellulose (CMC)
[2] = dose: 25.0 mg/kg/injection, schedule: Q01DX011 (ip), vehicle: carboxymethylcellulose (CMC)
[3] = dose: 50.0 mg/kg/injection, schedule: Q01DX011 (ip), vehicle: carboxymethylcellulose (CMC)
[4] = dose: 100.0 mg/kg/injection, schedule: Q01DX011 (ip), vehicle: carboxymethylcellulose (CMC)
[5] = dose: 125.0 mg/kg/injection, schedule: Q01DX011 (ip), vehicle: carboxymethylcellulose (CMC)
[6] = dose: 500.0 mg/kg/injection, schedule: Q01DX011 (ip), vehicle: carboxymethylcellulose (CMC)
[7] = dose: 0.6 mg/kg/injection, schedule: Q01DX011 (ip), vehicle: carboxymethylcellulose (CMC)
[8] = dose: 62.0 mg/kg/injection, schedule: Q01DX011 (ip), vehicle: carboxymethylcellulose (CMC)

## CN(C)c1ccc2nc3ccc(=[N+](C)C)cc-3sc2c1
[1]
  T/C: 278 % of control
dose: 10.0 mg/kg/injection, schedule: Q01DX011 (ip), vehicle: carboxymethylcellulose (CMC)
  T/C: 175 % of control
dose: 20.0 mg/kg/injection, schedule: Q01DX011 (ip), vehicle: carboxymethylcellulose (CMC)
  T/C: 171 % of control
dose: 40.0 mg/kg/injection, schedule: Q01DX011 (ip), vehicle: carboxymethylcellulose (CMC)
  T/C: 235 % of control

## Nc1ccc(C(=O)O)c(O)c1
dose: 37.8 mg/kg/injection, schedule: Q01DX011 (ip), vehicle: carboxymethylcellulose (CMC)
  T/C: 82 % of control
dose: 75.7 mg/kg/injection, schedule: Q01DX011 (ip), vehicle: carboxymethylcellulose (CMC)
  T/C: 101 % of control
dose: 151.5 mg/kg/injection, schedule: Q01DX011 (ip), vehicle: carboxymethylcellulose (CMC)
  T/C: 113 % of control
dose: 303.0 mg/kg/injection, schedule: Q01DX011 (ip), vehicle: carboxymethylcellulose (CMC)
  T/C: 95 % of control

## CCOC(=O)Sc1ncnc2nc[nH]c12
dose: 7.5 mg/kg/injection, schedule: Q01DX011 (ip), vehicle: carboxymethylcellulose (CMC)
  T/C: 44 % of control
dose: 15.0 mg/kg/injection, schedule: Q01DX011 (ip), vehicle: carboxymethylcellulose (CMC)
  T/C: 48 % of control
[2]
  T/C: 29 % of control and 40 % of control
[3]
  T/C: 17 % of control
[4]
  T/C: 2 % of control

## CN(C)c1ccc(C(N)=O)cn1
dose: 1.0 mg/kg/injection, schedule: Q01DX011 (ip), vehicle: carboxymethylcellulose (CMC)
  T/C: 78 % of control
dose: 2.0 mg/kg/injection, schedule: Q01DX011 (ip), vehicle: carboxymethylcellulose (CMC)
  T/C: 88 % of control and 100 % of control

## C[C@]12C=CC(=O)C=C1CC[C@@H]1[C@@H]2C(=O)C[C@@]2(C)[C@H]1CC[C@]2(O)C(=O)CO
dose: 10.0 mg/kg/injection, schedule: Q01DX011 (sc), vehicle: steriod suspending solution
  T/C: 92 % of control
dose: 20.0 mg/kg/injection, schedule: Q01DX011 (sc), vehicle: steriod suspending solution
  T/C: 27 % of control
dose: 25.0 mg/kg/injection, schedule: Q01DX011 (sc), vehicle: steriod suspending solution
  T/C: 23 % of control
dose: 50.0 mg/kg/injection, schedule: Q01DX011 (sc), vehicle: steriod suspending solution
  T/C: 11 % of control
dose: 100.0 mg/kg/injection, schedule: Q01DX011 (sc), vehicle: steriod suspending solution
  T/C: 9 % of control
dose: 200.0 mg/kg/injection, schedule: Q01DX011 (sc), vehicle: steriod suspending solution
  T/C: 11 % of control

## O=C(COc1cc(Cl)c(Cl)cc1Cl)OCCOc1cc(Cl)c(Cl)cc1Cl
dose: 11.25 mg/kg/injection, schedule: Q01DX011 (ip), vehicle: carboxymethylcellulose (CMC)
  T/C: 91 % of control
dose: 22.5 mg/kg/injection, schedule: Q01DX011 (ip), vehicle: carboxymethylcellulose (CMC)
  T/C: 112 % of control
dose: 45.0 mg/kg/injection, schedule: Q01DX011 (ip), vehicle: carboxymethylcellulose (CMC)
  T/C: 117 % of control
dose: 90.0 mg/kg/injection, schedule: Q01DX011 (ip), vehicle: carboxymethylcellulose (CMC)
  T/C: 65 % of control

## O=C(Nc1ccc(C2=NCCN2)cc1)c1ccc(C(=O)Nc2ccc(C3=NCCN3)cc2)c(NC(=O)c2ccc(C(=O)Nc3cc(C(=O)Nc4ccc(C5=NCCN5)cc4)ccc3C(=O)Nc3ccc(C4=NCCN4)cc3)cc2)c1
[5]
  T/C: 161 % of control
[6]
  T/C: 115 % of control

## C1CC[N-]CC1.C1CC[N-]CC1.C1CC[N-]CC1.C1CC[N-]CC1.[Cl][Co][Cl]
[3]
  T/C: 160 % of control

## S=P(N1CC1)(N1CC1)N1CC1
dose: 0.3 mg/kg/injection, schedule: Q01DX011 (ip), vehicle: carboxymethylcellulose (CMC)
  T/C: 79 % of control
[7]
  T/C: 73 % of control
dose: 0.96 mg/kg/injection, schedule: Q01DX011 (ip), vehicle: carboxymethylcellulose (CMC)
  T/C: 72 % of control
dose: 1.6 mg/kg/injection, schedule: Q01DX011 (ip), vehicle: carboxymethylcellulose (CMC)
  T/C: 99 % of control
dose: 2.4 mg/kg/injection, schedule: Q01DX011 (ip), vehicle: carboxymethylcellulose (CMC)
  T/C: 61 % of control and 73 % of control

## O=C1C=CC(=O)O1 (tested in a mixture with another compound)
dose: 7.5 mg/kg/injection, schedule: Q#A X022 (ip), vehicle: carboxymethylcellulose (CMC)
  T/C: 58 % of control
dose: 15.5 mg/kg/injection, schedule: Q#A X022 (ip), vehicle: carboxymethylcellulose (CMC)
  T/C: 84 % of control
dose: 125.0 mg/kg/injection, schedule: Q#A X022 (ip), vehicle: carboxymethylcellulose (CMC)
  T/C: 96 % of control
dose: 250.0 mg/kg/injection, schedule: Q#A X022 (ip), vehicle: carboxymethylcellulose (CMC)
  T/C: 33 % of control

## CC(CCc1cccc2ccccc12)(C(=O)O)C(=O)O
[4]
  T/C: 92 % of control

## Nc1ncnc2c1ccn2C1OC(CO)C(O)C1O (stereo unspecified)
[7]
  T/C: 104 % of control
dose: 1.25 mg/kg/injection, schedule: Q01DX011 (ip), vehicle: carboxymethylcellulose (CMC)
  T/C: 72 % of control

## C[N+](C)(C)c1ncnc2nc[nH]c12
dose: 31.0 mg/kg/injection, schedule: Q01DX011 (ip), vehicle: carboxymethylcellulose (CMC)
  T/C: 106 % of control
[8]
  T/C: 43 % of control
[5]
  T/C: 47 % of control

## CCC(=O)O[C@H]1CC[C@H]2[C@@H]3CC[C@H]4CC(=O)[C@H](C)C[C@]4(C)[C@H]3CC[C@]12C
dose: 42.0 mg/kg/injection, schedule: Q01DX011 (sc), vehicle: steriod suspending solution
  T/C: 212 % of control
dose: 44.1 mg/kg/injection, schedule: Q01DX011 (sc), vehicle: steriod suspending solution
  T/C: 173 % of control
dose: 83.0 mg/kg/injection, schedule: Q01DX011 (sc), vehicle: steriod suspending solution
  T/C: 227 % of control
dose: 88.2 mg/kg/injection, schedule: Q01DX011 (sc), vehicle: steriod suspending solution
  T/C: 184 % of control
dose: 176.0 mg/kg/injection, schedule: Q01DX011 (sc), vehicle: steriod suspending solution
  T/C: 225 % of control
dose: 353.0 mg/kg/injection, schedule: Q01DX011 (sc), vehicle: steriod suspending solution
  T/C: 168 % of control and 213 % of control

## Oc1ccc2ccccc2c1N=Nc1ccccc1
[2]
  T/C: 90 % of control
[3]
  T/C: 56 % of control
[4]
  T/C: 41 % of control and 47 % of control
dose: 200.0 mg/kg/injection, schedule: Q01DX011 (ip), vehicle: carboxymethylcellulose (CMC)
  T/C: 65 % of control and 47 % of control

## O=C(O)c1cc(O)c(O)c(O)c1
dose: 50.0 mg/kg/injection, schedule: Q01DX011 (ip), vehicle: alkali diluted with saline
  T/C: 85 % of control
dose: 100.0 mg/kg/injection, schedule: Q01DX011 (ip), vehicle: alkali diluted with saline
  T/C: 79 % of control
dose: 200.0 mg/kg/injection, schedule: Q01DX011 (ip), vehicle: alkali diluted with saline
  T/C: 84 % of control
dose: 400.0 mg/kg/injection, schedule: Q01DX011 (ip), vehicle: alkali diluted with saline
  T/C: 95 % of control

## O=C(Nc1ccc(C2=NCCN2)cc1)c1cc(Cl)cc(C(=O)Nc2ccc(C3=NCCN3)cc2)c1
[8]
  T/C: 75 % of control
[5]
  T/C: 111 % of control
dose: 250.0 mg/kg/injection, schedule: Q01DX011 (ip), vehicle: carboxymethylcellulose (CMC)
  T/C: 81 % of control
[6]
  T/C: 114 % of control

## S=c1nc[nH]c2nc[nH]c12
dose: 0.03 mg/kg/injection, schedule: Q01DX011 (ip), vehicle: carboxymethylcellulose (CMC)
  T/C: 55 % of control
dose: 0.05 mg/kg/injection, schedule: Q01DX011 (ip), vehicle: carboxymethylcellulose (CMC)
  T/C: 61 % of control
dose: 3.5 mg/kg/injection, schedule: Q01DX011 (ip), vehicle: carboxymethylcellulose (CMC)
  T/C: 21 % of control
[1]
  T/C: 2 % of control and 10 % of control and 12 % of control
dose: 7.0 mg/kg/injection, schedule: Q01DX011 (ip), vehicle: carboxymethylcellulose (CMC)
  T/C: 13 % of control
dose: 14.0 mg/kg/injection, schedule: Q01DX011 (ip), vehicle: carboxymethylcellulose (CMC)
  T/C: 9 % of control
dose: 42.0 mg/kg/injection, schedule: Q01DX011 (ip), vehicle: carboxymethylcellulose (CMC)
  T/C: 4 % of control and 7 % of control and 16 % of control

## CC(C)(CC(=O)O)CC(=O)OCC(=O)[C@@]1(O)CC[C@H]2[C@@H]3CCC4=CC(=O)C=C[C@]4(C)[C@H]3[C@@H](O)C[C@@]21C
dose: 9.0 mg/kg/injection, schedule: Q01DX011 (sc), vehicle: steriod suspending solution
  T/C: 61 % of control
dose: 19.0 mg/kg/injection, schedule: Q01DX011 (sc), vehicle: steriod suspending solution
  T/C: 58 % of control
dose: 37.5 mg/kg/injection, schedule: Q01DX011 (sc), vehicle: steriod suspending solution
  T/C: 48 % of control
dose: 38.0 mg/kg/injection, schedule: Q01DX011 (sc), vehicle: steriod suspending solution
  T/C: 50 % of control
dose: 75.0 mg/kg/injection, schedule: Q01DX011 (sc), vehicle: steriod suspending solution
  T/C: 46 % of control and 47 % of control
dose: 150.0 mg/kg/injection, schedule: Q01DX011 (sc), vehicle: steriod suspending solution
  T/C: 46 % of control and 47 % of control
dose: 300.0 mg/kg/injection, schedule: Q01DX011 (sc), vehicle: steriod suspending solution
  T/C: 37 % of control and 38 % of control
dose: 600.0 mg/kg/injection, schedule: Q01DX011 (sc), vehicle: steriod suspending solution
  T/C: 31 % of control
